Source: patent publication US10240124B2, “Cell culture substrate comprising a laminin and a cadherin” (BioLamina AB, priority 2011, dated 2019)

How the values were obtained:
hES cells [1] = test: Expression of pluripotency and differentiation markers (RT-PCR, FACS, immunofluorescence); assay type: cell-based, human; conditions: compared with cells on Matrigel passed as small clumps
Description: For immunofluorescence studies, ES cells were cultured and fixed in 8-well slide chambers (BD Biosciences) or 96-well plate wells by 4% paraformaldehyde, permeabilized by 0.1% Triton-X and blocked by 10% bovine fetal serum (GIBCO Invitrogen Corporation) in phosphate-saline buffer (PBS) containing 0.1% Tween-20 (Sigma-Aldrich, St. Louis, http://www.sigmaaldrich.com) for one hour. Incubation with primary antibody was performed for 1.5 hours at room temperature. Incubation with secondary antibody and 4,6-diamidino-2-phenylindole (DAPI, Molecular Probes) was performed for 40 minutes. Between incubations, the specimens were washed with 0.1% Tween-20 in PBS buffer three to five times. Specimens were preserved in a fluorescence mounting medium (Dako, Glostrup, Denmark, http://www.dako.com), and observed under a fluorescence microscope (Leica, Heerbrugg, Switzerland, http://www.leica.com).
Total RNA was isolated using Absolutely RNA Microprep Kit (Stratagene, La Jolla Calif., www.stratagene.com) according to the manufacturer's instructions. cDNA was synthesized using 0.2 μg of total RNA in 20 μl reaction mixture, containing oligo(dT)12-18 primers and Superscript II reverse transcriptase (GIBCO Invitrogen Corporation), according to the manufacturer's instructions. […] All data was analyzed with 7300 System SDS Software v 1.4. […]

SCID mouse = test: Teratoma formation; assay type: in vivo; conditions: HS181 13 passages, H1 12 passages in O3; H1 7 passages in TeSR2
Description: Teratoma formation experiments were performed by implantation of approximately 10^6 cells beneath the testicular capsule of a young (7-week-old) severe combined immunodeficiency (SCID) mouse. Three animals per each cell line were used. Teratoma growth was observed by weekly palpation, and the mice were sacrificed eight weeks after the implantation. The teratomas were fixed, and sections were stained with hematoxylin and eosin (HE) or with hematoxylin, eosin and PAS (HE-PAS). […] All animal experiments were performed at the infection-free animal facility of the Karolinska University Hospital in accordance with ethical committee approval.

ES cells = test: Embryoid body formation; assay type: cell-based, human; conditions: same three cultures as teratoma test
Description: ES cells from LN-521 coated cell culture dishes were exposed to TrypLE™Select for one minute at 37° C., 5% CO2, washes two times with a medium, broken into large pieces and cultured in suspension in low adhesion plates. The medium used for this was Knockout DMEM (GIBCO Invitrogen Corporation) supplemented with 2 mM L-glutamine, 20% fetal calf serum (GIBCO Invitrogen Corporation), 0.1 mM β-mercaptoethanol (GIBCO Invitrogen Corporation) and 1% non-essential amino acids (GIBCO Invitrogen Corporation). After 1-2 weeks in suspension, the embryoid bodies were transferred onto gelatin coated tissue cell culture 96-well plates (Sarstedt), cultured for 1-2 weeks, then fixed, stained with antibodies against markers of all three embryonic germ line layers (smooth muscle actin, MAP-2 and α-fetoprotein) and analyzed as described above for immunofluorescence.

myosin light chain (MLC) = test: Western blot of phosphorylated myosin light chain; assay type: cell-based, human; conditions: one and six hours after plating, FIG. 12 and 13
Description: HS 181 cells were trypsinized into single cell suspension as described above. For inhibition experiments, the cells were kept in O3 medium with blocking antibodies or pathway inhibitors for 30 minutes and then 450K cells were plated on 35 mm dishes precoated with the appropriate matrix coating. For other experiments, same number of cells was plated directly after trypsinization. […] After two washings in ice-cold PBS, the plates with cells were snap frozen in liquid nitrogen and stored at −80° C. To prepare samples for western blots and ELISA, the plates were slowly thawed and kept on ice with 100-150 μl of lysis buffer (50 mM Tris-HCl, pH7.5, 150 mM NaCl, 0.5% deoxycholate, 0.5% SDS, 1% Triton X-100, 1% Igepal, Complete™ (Roche) and Phospho-Stop™ (Roche)) on top. Then, the cells were scraped, pipetted and sheared through a 27 G ¾″ needle. After that, the cell pellets were clarified by centrifugation at 16,100 rcf for 15 minutes at 4° C. For western blots, 4-12% gradient gels were used for SDS electrophoresis and the proteins were transferred to PVDF membranes. The membrane was hybridized with the antibody of interest according to the manufacturer's instructions. […] For the densitometry analysis the films were scanned at 2,400 dpi and analyzed by the Chemilmager5500 program (1 D-Multi Line densitometry mode). […]

hES cells [2] = test: In vivo imaging and migration assay; assay type: cell-based, human
Description: 24-well plates were coated by extracellular matrix proteins and blocked by O3 medium containing bovine serum albumin. The ES cells were plated at cell density of 30,000-40,000 cells/cm^2 onto extracellular matrix-coated plates and left to adhere for half an hour in a cell incubator. After that, the plate was transferred into high content imaging system Operetta (PerkinElmer) equipped with environmental control unit, which allowed to keep 37° C., 5% CO2. For two movies that were made, the brightfield images were taken once in 15 minutes during 24 hours after plating using Harmony software (PerkinElmer), exported, and analyzed using ImageJ software (NIH, the US). For migration assay the images were taken every seven minutes during 18 hours after plating. Images acquired between the fifth and seventh hours after plating were analyzed using MTrackJ plug-in (University Medical Center, Rotterdam, The Netherlands). 100 attached cells on each coating were traced and mean distances from the current to the previous point of the track were calculated. Error bars show standard error of the mean s.e.m. (n=100).

Integrin α6β1 = Integrin α6β1 (Homo sapiens, UniProt P05556+P23229); conditions: cited from earlier work
Integrin α6β1, sequence (P23229 24-1130): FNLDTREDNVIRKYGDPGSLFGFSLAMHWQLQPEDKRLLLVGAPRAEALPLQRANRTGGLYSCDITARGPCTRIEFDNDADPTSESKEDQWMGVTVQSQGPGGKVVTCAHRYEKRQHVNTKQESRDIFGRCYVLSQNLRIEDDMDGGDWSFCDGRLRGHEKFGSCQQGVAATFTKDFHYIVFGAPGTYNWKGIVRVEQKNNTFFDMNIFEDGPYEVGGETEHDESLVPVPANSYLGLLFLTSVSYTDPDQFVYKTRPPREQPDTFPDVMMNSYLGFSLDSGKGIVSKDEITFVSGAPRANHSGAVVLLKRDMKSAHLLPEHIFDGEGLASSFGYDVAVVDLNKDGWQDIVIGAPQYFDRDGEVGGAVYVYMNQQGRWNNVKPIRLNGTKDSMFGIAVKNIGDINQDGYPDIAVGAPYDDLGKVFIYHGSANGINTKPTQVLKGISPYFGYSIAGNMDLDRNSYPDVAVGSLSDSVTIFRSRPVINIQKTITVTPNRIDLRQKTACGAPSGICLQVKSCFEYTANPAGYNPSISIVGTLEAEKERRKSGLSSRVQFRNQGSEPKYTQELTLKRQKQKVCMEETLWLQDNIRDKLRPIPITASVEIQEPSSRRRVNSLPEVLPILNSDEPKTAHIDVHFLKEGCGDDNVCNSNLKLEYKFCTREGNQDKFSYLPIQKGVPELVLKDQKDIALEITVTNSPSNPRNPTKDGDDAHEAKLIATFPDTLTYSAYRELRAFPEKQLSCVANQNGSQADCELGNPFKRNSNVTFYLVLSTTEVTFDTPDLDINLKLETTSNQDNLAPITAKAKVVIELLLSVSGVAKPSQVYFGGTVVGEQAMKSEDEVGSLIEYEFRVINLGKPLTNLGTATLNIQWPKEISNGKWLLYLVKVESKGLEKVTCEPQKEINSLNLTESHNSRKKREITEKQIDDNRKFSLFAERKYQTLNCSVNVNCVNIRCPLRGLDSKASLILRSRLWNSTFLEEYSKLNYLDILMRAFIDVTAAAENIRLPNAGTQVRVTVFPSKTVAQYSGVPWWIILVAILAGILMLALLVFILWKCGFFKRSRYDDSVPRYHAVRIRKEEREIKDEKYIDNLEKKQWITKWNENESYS
Integrin α6β1, sequence (P05556 21-798): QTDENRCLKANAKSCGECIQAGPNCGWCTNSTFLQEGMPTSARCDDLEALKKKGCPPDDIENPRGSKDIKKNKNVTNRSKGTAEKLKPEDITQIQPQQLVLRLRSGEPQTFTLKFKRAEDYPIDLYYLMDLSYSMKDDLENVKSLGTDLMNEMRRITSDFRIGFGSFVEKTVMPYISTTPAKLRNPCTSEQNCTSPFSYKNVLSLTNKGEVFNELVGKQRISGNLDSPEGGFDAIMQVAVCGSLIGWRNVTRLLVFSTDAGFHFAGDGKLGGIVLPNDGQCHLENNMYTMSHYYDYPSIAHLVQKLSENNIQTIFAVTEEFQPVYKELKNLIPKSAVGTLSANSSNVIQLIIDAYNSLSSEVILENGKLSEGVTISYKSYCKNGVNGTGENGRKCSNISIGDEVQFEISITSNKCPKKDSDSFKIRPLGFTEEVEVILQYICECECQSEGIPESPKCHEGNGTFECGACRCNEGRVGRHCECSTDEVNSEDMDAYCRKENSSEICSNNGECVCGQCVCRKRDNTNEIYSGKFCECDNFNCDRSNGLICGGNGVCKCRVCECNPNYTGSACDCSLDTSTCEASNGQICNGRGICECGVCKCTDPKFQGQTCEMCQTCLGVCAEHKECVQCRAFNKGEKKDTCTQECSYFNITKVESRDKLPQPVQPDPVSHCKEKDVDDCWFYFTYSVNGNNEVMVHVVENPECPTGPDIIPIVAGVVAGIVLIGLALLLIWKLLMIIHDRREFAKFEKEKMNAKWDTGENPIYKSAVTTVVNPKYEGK

LN-521: protein formed by joining α5, β2 and γ1 laminin chains; human recombinant, produced in HEK293 cells
expression levels of pluripotency markers Oct4, Nanog and SSEA4 (hES cells [1]): stable expression levels
histology of teratomas formed in SCID mice (SCID mouse): development of tissues containing all three germ lineages
differentiation in vitro, embryoid bodies expressing markers of mesoderm, ectoderm and endoderm (ES cells): retained the competence to form embryoid bodies
phosphorylation of MLC compared with cells on Matrigel and LN-111 (myosin light chain (MLC)): even higher
cell migration by imaging compared with Matrigel (hES cells [2]; 24 hours imaging): much faster
motility of hES cells compared with other coatings (hES cells [2]; between the fifth and seventh hours after plating, FIG. 14): higher than that of the cells on other coatings
binding affinity of integrin α6β1 compared with LN-111 (Integrin α6β1): higher than that for LN-111
